The source of these data is patent publication US9845291B2, “Estrogen receptor modulators and uses thereof” (Genentech, Inc., priority 2014, dated 2017).

The assay concerns the target estrogen receptor alpha (ESR1) (Homo sapiens, UniProt P03372). Kind of assay: cell-based. The conditions noted are these: for ER-alpha MCF7 HCS Sinf: MCF7 breast cancer cells, 4 hours, plateau of the maximal effect, DMSO and Fulvestrant define 0% and 100% changes in ESR1. The protocol:
Where more than one name is associated with a Formula I compound or intermediate, the chemical structure shall define the compound.
Cell plates were incubated at 37° C., for 4 hours. Fixation and permeabilization were carried out using a Biotek EL406 plate washer and dispenser as follows. […] Samples were incubated 30 minutes. Well contents was aspirated and 50 ul/well of Phosphate Buffered Saline (PBS) containing 0.5% w/v bovine serum albumen, 0.5% v/v Triton X-100 (Antibody Dilution Buffer) was added to each well. Samples were incubated for 30 minutes. Well contents were aspirated and washed 3 times with 100 ul/well of PBS. Immunofluorescence staining of estrogen receptor alpha (ESR1) was carried out using a Biotek EL406 plate washer and dispenser as follows. […] Samples were incubated for 2 hours at room temperature. Samples were washed 4 times with 100 ul/well of PBS. […] Samples were incubated for 2 hours at room temperature. Samples were washed 3 times with 100 ul/well of PBS using a Biotek EL406. Quantitative fluorescence imaging of ESR1 was carried out using a Cellomics Arrayscan V (Thermo). […] Channel 1 (DNA stain) was used to define the nuclear region (Circ). […] Data analysis was carried out using Genedata Screener Software, with DMSO and 5 nM Fulvestrant treated samples being used to define the 0% and 100% changes in ESR1. The “Robust Fit” method was used to define the inflexion point of curve (EC50) and the plateau of the maximal effect (Sin f).

Chain of estrogen receptor alpha (ESR1) (P03372 whole entry): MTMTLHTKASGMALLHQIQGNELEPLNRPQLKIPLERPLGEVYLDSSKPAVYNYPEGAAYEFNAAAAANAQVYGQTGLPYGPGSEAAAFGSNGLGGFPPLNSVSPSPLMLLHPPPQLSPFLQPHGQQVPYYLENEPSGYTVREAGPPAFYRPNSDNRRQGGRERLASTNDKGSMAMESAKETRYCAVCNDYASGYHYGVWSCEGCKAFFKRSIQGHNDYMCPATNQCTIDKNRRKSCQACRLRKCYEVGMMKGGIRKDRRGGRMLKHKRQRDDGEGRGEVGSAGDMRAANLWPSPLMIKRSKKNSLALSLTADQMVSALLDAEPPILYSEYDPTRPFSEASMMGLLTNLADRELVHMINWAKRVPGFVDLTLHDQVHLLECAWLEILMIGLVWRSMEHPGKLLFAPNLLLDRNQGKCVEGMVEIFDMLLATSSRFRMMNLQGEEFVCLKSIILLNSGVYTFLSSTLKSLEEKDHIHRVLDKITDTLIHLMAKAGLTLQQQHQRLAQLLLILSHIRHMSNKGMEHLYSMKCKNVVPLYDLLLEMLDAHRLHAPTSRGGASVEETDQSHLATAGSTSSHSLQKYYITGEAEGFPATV

In general, EC50 refers to the midpoint of the concentration-response curve. `Oc1ccc(-c2onc(-c3ccccc3Cl)c2-c2ccc(OCCN3CC(CF)C3)cc2)cc1` [Example 14, 4-(3-(2-Chlorophenyl)-4-(4-(2-(3-(fluoromethyl)azetidin-1-yl)ethoxy)phenyl)isoxazol-5-yl)phenol]: the midpoint of the response, the EC50, lay at 0.21 nM and the “ER-alpha MCF7 HCS Sinf” value is listed as −99%.
As for `O=C(c1ccc(OCCN2CC(CF)C2)cc1)c1c(-c2ccc(F)c(F)c2)sc2cc(O)ccc12` [Example 35, (2-(3,4-difluorophenyl)-6-hydroxybenzo[b]thiophen-3-yl)(4-(2-(3-(fluoromethyl)azetidin-1-yl)ethoxy)phenyl)methanone], the EC50 was 0.55 nM and the “ER-alpha MCF7 HCS Sinf” value is −98%.
For `Oc1ccc(-c2snc(-c3ccccc3Cl)c2-c2ccc(OCCN3CC(CF)C3)c(F)c2)cc1` [Example 16, 4-(3-(2-Chloro-phenyl)-4-{3-fluoro-4-[2-(3-fluoromethyl-azetidin-1-yl)-ethoxy]-phenyl}-isothiazol-5-yl)-phenol], the “ER-alpha MCF7 HCS Sinf” value is −99.2%.
As to `CC/C(=C(\c1ccccc1)c1ccc(OCCN2CC(CF)C2)cc1)c1ccccc1` [Example 21, (Z)-1-(2-(4-(1,2-Diphenylbut-1-en-1-yl)phenoxy)ethyl)-3-(fluoromethyl)azetidine], it took 11 nM to reach a half-maximal effect (EC50) and the “ER-alpha MCF7 HCS Sinf” value was −97%.
On the same counts, the results for `Cc1c(-c2ccc(O)cc2)n(Cc2ccc(OCCN3CC(CF)C3)cc2)c2ccccc12` [Example 5, 4-(1-(4-(2-(3-(Fluoromethyl)azetidin-1-yl)ethoxy)benzyl)-3-methyl-1H-indol-2-yl)phenol] are 65 nM and −93%.
On the same counts, the results for `COc1ccc(-c2sc3cc(O)ccc3c2Oc2ccc(OC[C@H](C)N3CC[C@@H](CF)C3)cc2)cc1` [Example 12, 3-(4-((S)-2-((R)-3-(Fluoromethyl)pyrrolidin-1-yl)propoxy)phenoxy)-2-(4-methoxyphenyl)benzo [6]thiophen-6-ol] are 310 nM and −50%.
The corresponding values for `Cc1cc(-c2c(C)c3cc(O)ccc3n2Cc2ccc(OCCN3CC[C@@H](CF)C3)cc2)ccc1O` [Example 42, (R)-1-(4-(2-(3-(fluoromethyl)pyrrolidin-1-yl)ethoxy)benzyl)-2-(4-hydroxy-3-methylphenyl)-3-methyl-1H-indol-5-ol] are 0.025 nM and −97.5%.
Take `CS(=O)(=O)c1ccc(-c2ccc3cc(O)ccc3c2C(=O)c2ccc(OCCN3CC[C@@H](CF)C3)cc2)cc1` [Example 67, [4-[2-[(3R)-3-(fluoromethyl)pyrrolidin-1-yl]ethoxy]phenyl]-[6-hydroxy-2-(4-methylsulfonylphenyl)-1-naphthyl]methanone]: it took 0.414 nM to reach a half-maximal effect (EC50) and the “ER-alpha MCF7 HCS Sinf” value was −97.6%.
Regarding `Cc1c(-c2ccc(O)cc2Cl)n(Cc2ccc(OCCN3CC(CF)C3)cc2)c2ccc(O)cc12` [Example 47, 2-(2-chloro-4-hydroxy-phenyl)-1-[[4-[2-[3-(fluoromethyl)azetidin-1-yl]ethoxy]phenyl]methyl]-3-methyl-indol-5-ol], the EC50 came out at 0.115 nM and the “ER-alpha MCF7 HCS Sinf” value is −94.1%.
The corresponding values for `Cc1c(-c2ccc(O)c(F)c2)n(Cc2ccc(OCCN3CC[C@@H](CF)C3)cc2)c2ccc(O)cc12` [Example 44, 2-(3-fluoro-4-hydroxy-phenyl)-1-[[4-[2-[(3R)-3-(fluoromethyl)pyrrolidin-1-yl]ethoxy]phenyl]methyl]-3-methyl-indol-5-ol] are 0.0278 nM and −98.1%.
Regarding `Oc1ccc(-c2sc3cc(O)ccc3c2Oc2ccc(OCCN3CC(CF)C3)cc2)cc1` [Example 11, 3-(4-(2-(3-(Fluoromethyl)azetidin-1-yl)ethoxy)phenoxy)-2-(4-hydroxyphenyl)benzo[b]thiophen-6-ol], the EC50 was 0.13 nM and the “ER-alpha MCF7 HCS Sinf” value was −94%.
On the same counts, the results for `Cc1c(-c2ccc(O)cc2Cl)n(Cc2ccc(OC[C@H](C)N3CC[C@@H](CF)C3)cc2)c2ccc(O)cc12` [Example 56, 2-(2-chloro-4-hydroxyphenyl)-1-(4-((S)-2-((R)-3-(fluoromethyl)pyrrolidin-1-yl)propoxy)benzyl)-3-methyl-1H-indol-5-ol] are 0.0285 nM and −95.6%.
On the same counts, the results for `Cc1cc(F)ccc1-c1sc2cc(O)ccc2c1C(=O)c1ccc(OCCN2CC(CF)C2)cc1` [Example 38, (2-(4-fluoro-2-methylphenyl)-6-hydroxybenzo[b]thiophen-3-yl)(4-(2-(3-(fluoromethyl)azetidin-1-yl)ethoxy)phenyl)methanone] are 0.88 nM and −96%.
On the same counts, the results for `Cc1c(-c2ccc(O)cc2)n(Cc2ccc(OCCN3CC(CF)C3)cc2)c2ccc(O)cc12` [Example 1, 1-(4-(2-(3-(Fluoromethyl)azetidin-1-yl)ethoxy)benzyl)-2-(4-hydroxyphenyl)-3-methyl-1H-indol-5-ol] are 0.46 nM and −95%.
